According to publication PMC6848745 (Psychopharmacology, 2018):
Values joined by “and” are separate entries in the source; they are usually repeats but may differ in a detail not shown here. Equal entries are not always repeated.

Tests used:
5-HT7 = 5-HT7 (Homo sapiens, UniProt P34969); test: NIMH PDSP competitive binding, 5-HT7; details: [3H]LSD; cloned receptor; mean ± SEM
α2A = α2A (Homo sapiens, UniProt P08913); test: NIMH PDSP competitive binding, α2A; details: [3H]rauwolscine; cloned receptor; mean ± SEM
5-HT2A [1] = molecular target: T1, 5-HT2A (Homo sapiens, UniProt P28223); test: NIMH PDSP competitive binding, 5-HT2A; details: [3H]ketanserin; cloned receptor; mean ± SEM
human 5-HT2C INI = molecular target: T2, human 5-HT2C INI (Homo sapiens, UniProt P28335); test: Gq-mediated calcium flux in HEK293 cells, h5-HT2C; assay type: cell-based
T2 sequence (P28335 33-458): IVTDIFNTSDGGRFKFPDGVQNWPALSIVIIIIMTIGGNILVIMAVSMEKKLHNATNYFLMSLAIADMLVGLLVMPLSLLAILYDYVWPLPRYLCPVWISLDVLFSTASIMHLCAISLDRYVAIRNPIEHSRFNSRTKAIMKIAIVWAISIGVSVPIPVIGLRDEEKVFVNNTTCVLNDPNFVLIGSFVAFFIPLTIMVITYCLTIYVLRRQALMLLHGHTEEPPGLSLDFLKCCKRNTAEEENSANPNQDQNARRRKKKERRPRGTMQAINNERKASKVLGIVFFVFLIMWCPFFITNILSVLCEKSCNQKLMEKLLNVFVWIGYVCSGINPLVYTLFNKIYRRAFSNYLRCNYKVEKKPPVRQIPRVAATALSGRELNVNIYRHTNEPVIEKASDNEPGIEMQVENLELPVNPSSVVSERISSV

5-HT2C = 5-HT2C (Homo sapiens, UniProt P28335); test: NIMH PDSP competitive binding, 5-HT2C
D4 = D4 (Homo sapiens, UniProt P21917); test: NIMH PDSP competitive binding, D4; details: [3H]N-methylspiperone; cloned receptor; mean ± SEM
α1B = α1B (Homo sapiens, UniProt P35368); test: NIMH PDSP competitive binding, α1B; details: [3H]prazosin; cloned receptor; mean ± SEM
5-HT2B [2] = molecular target: T3, 5-HT2B (Homo sapiens, UniProt P41595); test: NIMH PDSP competitive binding, 5-HT2B; details: [3H]LSD; cloned receptor; mean ± SEM
5-HT1A = 5-HT1A (Homo sapiens, UniProt P08908); test: NIMH PDSP competitive binding, 5-HT1A; details: [3H]8-OH-DPAT; cloned receptor; mean ± SEM
β1 [3] = molecular target: β1 (Homo sapiens, UniProt P08588); test: NIMH PDSP competitive binding, β1; details: primary binding assay
5-HT2A [4] = molecular target: T1, 5-HT2A; test: Gq-mediated calcium flux in HEK293 cells, h5-HT2A; assay type: cell-based
α2B = α2B (Homo sapiens, UniProt P18089); test: NIMH PDSP competitive binding, α2B; details: [3H]rauwolscine; cloned receptor; mean ± SEM
D2 = D2 (Homo sapiens, UniProt P14416); test: NIMH PDSP competitive binding, D2; details: [3H]N-methylspiperone; cloned receptor; mean ± SEM
D5 = D5 (Homo sapiens, UniProt P21918); test: NIMH PDSP competitive binding, D5; details: [3H]SCH23390; cloned receptor; mean ± SEM
5-HT1D = 5-HT1D (Homo sapiens, UniProt P28221); test: NIMH PDSP competitive binding, 5-HT1D; details: [3H]GR125743; cloned receptor; mean ± SEM
5-HT5A = 5-HT5A (Homo sapiens, UniProt P47898); test: NIMH PDSP competitive binding, 5-HT5A; details: [3H]LSD; cloned receptor; mean ± SEM
H2 = H2 (Homo sapiens, UniProt P25021); test: NIMH PDSP competitive binding, H2; details: [3H]tiotidine; cloned receptor; mean ± SEM
α1D = α1D (Homo sapiens, UniProt P25100); test: NIMH PDSP competitive binding, α1D; details: [3H]prazosin; cloned receptor
α2C = α2C (Homo sapiens, UniProt P18825); test: NIMH PDSP competitive binding, α2C; details: [3H]rauwolscine; cloned receptor; mean ± SEM
5-HT1B = 5-HT1B (Homo sapiens, UniProt P28222); test: NIMH PDSP competitive binding, 5-HT1B; details: [3H]GR125743; cloned receptor; mean ± SEM
5-HT6 = 5-HT6 (Homo sapiens, UniProt P50406); test: NIMH PDSP competitive binding, 5-HT6; details: [3H]LSD; cloned receptor; mean ± SEM
H3 = H3 (Cavia porcellus, UniProt Q9JI35); test: NIMH PDSP competitive binding, H3; details: primary binding assay
C57BL/6J mice [5] = test: Head twitch response; assay type: in vivo, mouse
5-HT2B [6] = molecular target: T3, 5-HT2B; test: Gq-mediated calcium flux in HEK293 cells, h5-HT2B; assay type: cell-based
D1 = D1 (Homo sapiens, UniProt P21728); test: NIMH PDSP competitive binding, D1; details: [3H]SCH23390; cloned receptor; mean ± SEM
H1 = H1 (Homo sapiens, UniProt P35367); test: NIMH PDSP competitive binding, H1
H4 = H4 (Homo sapiens, UniProt Q9H3N8); test: NIMH PDSP competitive binding, H4
α1A = α1A (Homo sapiens, UniProt P35348); test: NIMH PDSP competitive binding, α1A; details: [3H]prazosin; cloned receptor
D3 = D3 (Homo sapiens, UniProt P35462); test: NIMH PDSP competitive binding, D3; details: [3H]N-methylspiperone; cloned receptor; mean ± SEM
β2 [7] = molecular target: β2 (Homo sapiens, UniProt P07550); test: NIMH PDSP competitive binding, β2
β3 = β3 (Homo sapiens, UniProt P13945); test: NIMH PDSP competitive binding, β3; details: [3H]CGP12177; cloned receptor; mean ± SEM
H1 receptors = details: ref Nichols et al. 2002; Rickli et al. 2015; cited from earlier work
human subjects = details: cited from earlier work
β2 [8] = details: ref Nichols et al. 2002; cited from earlier work
[125I]DOI-labeled sites = read-out: Ki at [125I]DOI-labeled sites; ref Huang et al. 1994; cited from earlier work
α2-adrenoceptors = details: [3H]clonidine, rat cortex; ref Leysen 1989; Marona-Lewicka and Nichols 1995; cited from earlier work
C57BL/6J mice [9] = details: HTR under equivalent conditions; ref Halberstadt and Geyer 2013; cited from earlier work
[10] = tested on: rats trained to discriminate saline from LSD; details: rat drug discrimination; ref Huang et al. 1994; cited from earlier work
β1 [11] = details: ref Nichols et al. 2002; cited from earlier work
[12] = Ca2+ mobilization, HEK293 cells
[13] = percent 5-HT maximum response, mean ± SEM
[14] = IP, first 20-min of the test session

T1 sequence (P28223 whole entry): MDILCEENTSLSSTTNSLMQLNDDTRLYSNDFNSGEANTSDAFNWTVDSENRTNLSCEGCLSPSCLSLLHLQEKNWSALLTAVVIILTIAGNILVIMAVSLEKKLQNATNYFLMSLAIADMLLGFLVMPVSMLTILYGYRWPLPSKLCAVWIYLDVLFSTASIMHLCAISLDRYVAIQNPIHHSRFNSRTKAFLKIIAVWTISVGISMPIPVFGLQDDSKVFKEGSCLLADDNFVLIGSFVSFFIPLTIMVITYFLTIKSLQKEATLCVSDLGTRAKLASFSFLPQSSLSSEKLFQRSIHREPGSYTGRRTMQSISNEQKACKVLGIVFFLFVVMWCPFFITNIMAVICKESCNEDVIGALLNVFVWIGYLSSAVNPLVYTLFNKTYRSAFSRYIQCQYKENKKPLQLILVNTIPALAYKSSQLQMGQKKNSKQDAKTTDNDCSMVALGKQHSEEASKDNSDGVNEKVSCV
T3 sequence (P41595 whole entry): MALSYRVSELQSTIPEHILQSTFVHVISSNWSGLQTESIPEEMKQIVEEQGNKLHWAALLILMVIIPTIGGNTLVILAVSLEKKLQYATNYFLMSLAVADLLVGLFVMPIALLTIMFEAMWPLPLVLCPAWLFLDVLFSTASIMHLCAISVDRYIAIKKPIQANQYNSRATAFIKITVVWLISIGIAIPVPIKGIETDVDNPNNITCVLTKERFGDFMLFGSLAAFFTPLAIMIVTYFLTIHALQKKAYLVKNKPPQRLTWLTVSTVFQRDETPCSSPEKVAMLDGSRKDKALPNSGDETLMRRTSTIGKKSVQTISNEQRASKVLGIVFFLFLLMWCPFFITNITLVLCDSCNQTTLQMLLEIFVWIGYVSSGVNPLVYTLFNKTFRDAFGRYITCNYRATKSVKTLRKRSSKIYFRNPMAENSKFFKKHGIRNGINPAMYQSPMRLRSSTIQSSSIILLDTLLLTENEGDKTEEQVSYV
Sequence of β2 (Homo sapiens, UniProt P07550) (P07550 whole entry): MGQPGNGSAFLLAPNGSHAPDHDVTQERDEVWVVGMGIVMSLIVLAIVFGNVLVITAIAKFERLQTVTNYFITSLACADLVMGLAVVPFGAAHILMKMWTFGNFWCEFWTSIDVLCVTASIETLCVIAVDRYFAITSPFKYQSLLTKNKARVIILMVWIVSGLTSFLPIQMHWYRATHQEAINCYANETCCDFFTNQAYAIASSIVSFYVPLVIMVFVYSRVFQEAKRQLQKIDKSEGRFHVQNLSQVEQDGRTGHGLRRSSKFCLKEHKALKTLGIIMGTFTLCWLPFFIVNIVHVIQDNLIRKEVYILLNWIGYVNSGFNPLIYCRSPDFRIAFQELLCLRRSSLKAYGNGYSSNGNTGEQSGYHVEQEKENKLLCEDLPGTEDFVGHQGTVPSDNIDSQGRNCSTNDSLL
Sequence of H4 (Q9H3N8 whole entry): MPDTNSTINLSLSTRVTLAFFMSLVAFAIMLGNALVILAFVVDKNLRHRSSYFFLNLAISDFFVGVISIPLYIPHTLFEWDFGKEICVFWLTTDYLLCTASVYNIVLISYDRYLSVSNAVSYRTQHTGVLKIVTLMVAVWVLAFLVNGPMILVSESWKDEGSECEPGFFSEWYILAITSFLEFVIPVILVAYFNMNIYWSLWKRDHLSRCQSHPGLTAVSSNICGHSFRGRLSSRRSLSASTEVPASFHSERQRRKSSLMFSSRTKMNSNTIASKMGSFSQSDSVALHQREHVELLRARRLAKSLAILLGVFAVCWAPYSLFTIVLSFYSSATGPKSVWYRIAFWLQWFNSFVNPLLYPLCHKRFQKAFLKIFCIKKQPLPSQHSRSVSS
Sequence of H1 (P35367 whole entry): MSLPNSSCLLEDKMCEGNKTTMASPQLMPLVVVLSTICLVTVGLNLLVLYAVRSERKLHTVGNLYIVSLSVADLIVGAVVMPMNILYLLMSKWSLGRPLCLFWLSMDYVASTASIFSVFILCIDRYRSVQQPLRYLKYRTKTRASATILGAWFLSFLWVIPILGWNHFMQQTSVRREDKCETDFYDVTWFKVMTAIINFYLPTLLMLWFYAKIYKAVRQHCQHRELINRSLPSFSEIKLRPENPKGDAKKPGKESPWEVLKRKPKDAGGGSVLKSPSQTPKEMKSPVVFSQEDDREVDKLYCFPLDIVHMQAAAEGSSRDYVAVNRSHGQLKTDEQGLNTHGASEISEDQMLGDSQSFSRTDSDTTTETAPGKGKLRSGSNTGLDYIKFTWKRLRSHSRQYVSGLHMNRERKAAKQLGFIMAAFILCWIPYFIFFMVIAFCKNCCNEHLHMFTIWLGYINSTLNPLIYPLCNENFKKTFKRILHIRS
Sequence of D1 (P21728 whole entry): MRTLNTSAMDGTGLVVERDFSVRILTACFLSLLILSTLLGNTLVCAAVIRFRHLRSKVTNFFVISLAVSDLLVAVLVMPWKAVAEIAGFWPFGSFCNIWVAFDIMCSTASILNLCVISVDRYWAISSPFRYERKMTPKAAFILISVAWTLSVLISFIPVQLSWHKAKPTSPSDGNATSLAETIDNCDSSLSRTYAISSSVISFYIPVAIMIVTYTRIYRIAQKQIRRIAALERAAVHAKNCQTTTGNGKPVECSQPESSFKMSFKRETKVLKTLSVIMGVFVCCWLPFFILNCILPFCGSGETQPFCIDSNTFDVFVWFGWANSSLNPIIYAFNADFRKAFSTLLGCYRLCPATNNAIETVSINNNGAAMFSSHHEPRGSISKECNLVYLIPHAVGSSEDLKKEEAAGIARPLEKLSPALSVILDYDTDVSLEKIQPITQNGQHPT
Sequence of α2C (P18825 whole entry): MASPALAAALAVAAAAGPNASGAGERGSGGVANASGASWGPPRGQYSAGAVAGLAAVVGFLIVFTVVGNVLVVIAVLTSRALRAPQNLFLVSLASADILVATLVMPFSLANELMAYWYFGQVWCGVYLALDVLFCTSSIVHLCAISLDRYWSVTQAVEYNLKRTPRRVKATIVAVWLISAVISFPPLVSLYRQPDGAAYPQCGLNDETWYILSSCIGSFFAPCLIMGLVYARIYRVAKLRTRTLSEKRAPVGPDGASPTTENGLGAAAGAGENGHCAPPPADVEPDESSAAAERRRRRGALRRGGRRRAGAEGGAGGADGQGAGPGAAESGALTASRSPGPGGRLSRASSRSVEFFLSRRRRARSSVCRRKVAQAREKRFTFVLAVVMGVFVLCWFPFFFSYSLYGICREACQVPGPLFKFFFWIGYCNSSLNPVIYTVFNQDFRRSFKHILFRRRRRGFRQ
Sequence of H3 (Q9JI35 whole entry): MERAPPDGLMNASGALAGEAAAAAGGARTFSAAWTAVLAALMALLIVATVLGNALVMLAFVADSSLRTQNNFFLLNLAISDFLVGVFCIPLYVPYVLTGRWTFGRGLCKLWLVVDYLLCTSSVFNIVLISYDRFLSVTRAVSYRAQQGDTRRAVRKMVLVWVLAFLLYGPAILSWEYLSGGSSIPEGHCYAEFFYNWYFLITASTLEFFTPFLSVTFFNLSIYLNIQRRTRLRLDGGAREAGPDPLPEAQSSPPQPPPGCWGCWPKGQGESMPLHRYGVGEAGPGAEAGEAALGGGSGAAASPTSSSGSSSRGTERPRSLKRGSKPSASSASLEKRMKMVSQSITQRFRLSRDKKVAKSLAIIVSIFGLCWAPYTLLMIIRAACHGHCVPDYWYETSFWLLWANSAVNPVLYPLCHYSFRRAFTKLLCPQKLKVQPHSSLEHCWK
Sequence of D3 (P35462 whole entry): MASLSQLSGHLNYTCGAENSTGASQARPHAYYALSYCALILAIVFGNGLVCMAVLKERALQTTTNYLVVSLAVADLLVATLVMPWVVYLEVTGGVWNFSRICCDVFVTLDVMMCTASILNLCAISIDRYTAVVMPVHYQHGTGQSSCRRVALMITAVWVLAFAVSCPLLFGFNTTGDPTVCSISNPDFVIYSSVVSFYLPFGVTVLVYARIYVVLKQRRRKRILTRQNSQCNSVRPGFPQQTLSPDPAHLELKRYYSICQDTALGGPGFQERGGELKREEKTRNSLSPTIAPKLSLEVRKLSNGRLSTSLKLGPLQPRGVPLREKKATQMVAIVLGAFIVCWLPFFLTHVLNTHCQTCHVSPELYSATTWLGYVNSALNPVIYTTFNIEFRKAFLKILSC
Sequence of α2A (P08913 whole entry): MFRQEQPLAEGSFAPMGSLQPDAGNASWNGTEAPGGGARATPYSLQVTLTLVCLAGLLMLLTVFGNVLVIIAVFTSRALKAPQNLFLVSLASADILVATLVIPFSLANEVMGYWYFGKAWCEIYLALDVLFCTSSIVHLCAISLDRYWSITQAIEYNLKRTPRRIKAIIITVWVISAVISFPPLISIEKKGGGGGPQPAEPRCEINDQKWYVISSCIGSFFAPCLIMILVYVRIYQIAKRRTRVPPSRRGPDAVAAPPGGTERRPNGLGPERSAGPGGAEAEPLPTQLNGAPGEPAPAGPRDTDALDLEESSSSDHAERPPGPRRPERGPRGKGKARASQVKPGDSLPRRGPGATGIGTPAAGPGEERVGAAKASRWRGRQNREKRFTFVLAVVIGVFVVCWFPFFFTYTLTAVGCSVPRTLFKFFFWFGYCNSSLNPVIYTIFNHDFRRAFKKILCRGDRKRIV
Sequence of 5-HT7 (P34969 whole entry): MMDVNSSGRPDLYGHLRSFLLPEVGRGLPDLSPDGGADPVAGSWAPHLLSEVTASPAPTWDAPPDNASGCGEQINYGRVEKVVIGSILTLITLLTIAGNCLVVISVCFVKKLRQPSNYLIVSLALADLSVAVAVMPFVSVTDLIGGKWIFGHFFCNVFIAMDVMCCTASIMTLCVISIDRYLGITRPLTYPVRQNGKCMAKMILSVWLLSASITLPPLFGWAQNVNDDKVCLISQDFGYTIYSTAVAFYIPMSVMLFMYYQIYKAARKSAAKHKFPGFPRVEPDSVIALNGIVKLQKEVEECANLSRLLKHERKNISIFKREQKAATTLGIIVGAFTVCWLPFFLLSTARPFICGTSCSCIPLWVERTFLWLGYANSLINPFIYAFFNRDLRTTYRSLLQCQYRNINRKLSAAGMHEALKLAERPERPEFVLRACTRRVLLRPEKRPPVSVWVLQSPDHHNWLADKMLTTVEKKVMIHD

Work on `CCN(C(=O)[C@@H]1C=C2c3cccc4[nH]cc(c34)C[C@H]2N(C)C1)C1CC1` [ECPLA, N-ethyl-N-cyclopropyl lysergamide] yielded a Ki (5-HT7) of 27.3 ± 11.5 nM, a Ki (α2A) of 144 ± 64 nM and a Ki (5-HT2A [1]) of 16.5 ± 6 nM. For the same compound, the EC50 (human 5-HT2C INI; [12]) was 183 nM, the “pEC50 ± SEM” value (human 5-HT2C INI; [12]) was 6.74 ± 0.09 and the “Emax % 5-HT” value (human 5-HT2C INI; [13]) was 73 % 5-HT and 73 ± 3 % 5-HT. The “fold lower affinity than LSD for the 5-HT2C receptor” value (5-HT2C; ECPLA Ki 85.7 nM vs LSD Ki 30 nM) was about 3 fold, the Ki (5-HT2C; [3H]mesulergine, cloned receptor, mean ± SEM) was 85.7 ± 31.2 nM and the Ki (D4) was 92.3 ± 11.9 nM. For the same compound, the Ki (α1B) was 1950 ± 152 nM, the Ki (5-HT2B [2]) was 5.3 ± 1.3 nM and the Ki (5-HT1A) was 3.2 ± 0.5 nM. The “displacement at 10 μM” value (β1 [3]) was under 50%, the EC50 (5-HT2A [4]; [12]) was 14.6 nM and the “pEC50 ± SEM” value (5-HT2A [4]; [12]) was 7.84 ± 0.04. The “Emax % 5-HT” value (5-HT2A [4]; [13]) was 91 % 5-HT and 91 ± 1 % 5-HT, the Ki (α2B) was 62.3 ± 15.1 nM and the Ki (D2) was 150 ± 32 nM. For the same compound, the Ki (D5) was 1500 ± 386 nM, the Ki (5-HT1D) was 12.6 ± 1.9 nM and the Ki (5-HT5A) was 8.6 ± 4.2 nM. The Ki (H2) was 890 ± 137 nM, the Ki (α1D) was over 10 µM and the Ki (α2C) was 438 ± 118 nM. For the same compound, the Ki (5-HT1B) was 42.3 ± 8.7 nM, the Ki (5-HT6) was 21.7 ± 4.4 nM and the “displacement at 10 μM” value (H3) was under 50%. The “HTR Counts (Mean ± SEM)” value (C57BL/6J mice [5]; 0.1 mg/kg IP, 30 min) was 17.7 ± 2.6, the “HTR Counts (Mean ± SEM)” value (C57BL/6J mice [5]; 0.3 mg/kg IP, 30 min) was 34.6 ± 5.1 and the “HTR Counts (Mean ± SEM)” value (C57BL/6J mice [5]; 1 mg/kg IP, 30 min) was 28.2 ± 2.6. The “ED50, nmol/kg (95% CI)” value (C57BL/6J mice [5]; IP, entire 30-min test session) was 317.2 (213.2–471.9) nmol/kg, the “ED50, μg/kg (95% CI)” value (C57BL/6J mice [5]; IP, entire 30-min test session) was 130.2 (87.5–193.7) μg/kg and the “dose of peak HTR response” value (C57BL/6J mice [5]; biphasic inverted-U-shaped dose-response, IP) was 0.3 mg/kg. The EC50 (5-HT2B [6]; [12]) was 36.7 nM, the “pEC50 ± SEM” value (5-HT2B [6]; [12]) was 7.44 ± 0.06 and the “Emax % 5-HT” value (5-HT2B [6]; [13]) was 73 % 5-HT and 73 ± 2 % 5-HT. For the same compound, the Ki (D1) was 502 ± 122 nM, the Ki (H1; [3H]pyrilamine, cloned receptor, IC50 > 10 μM in the primary binding assay) was over 10 µM and the “displacement at 10 μM” value (H1; primary binding assay, 10 μM) was under 50%. The Ki (H4; [3H]histamine, cloned receptor, IC50 > 10 μM in the primary binding assay) was over 10 µM, the “displacement at 10 μM” value (H4; primary binding assay, 10 μM) was under 50% and the Ki (α1A) was over 10 µM. The Ki (D3) was 104 ± 29 nM, the Ki (β2 [7]; [3H]CGP12177, cloned receptor, IC50 > 10 μM in the primary binding assay) was over 10 µM and the “displacement at 10 μM” value (β2 [7]; primary binding assay, 10 μM) was under 50%. For the same compound, the Ki (β3) was 2420 ± 639 nM.
In the case of `CCN(CC)C(=O)[C@@H]1C=C2c3cccc4[nH]cc(c34)C[C@H]2N(C)C1` [LSD, (+)-Lysergic acid diethylamide], the Ki (H1 receptors) is listed as 1100 to 1500 nM, the typical oral doses (human subjects; oral, humans, ref Shulgin and Shulgin 1997) is listed as 60 to 200 µg and the Ki (β2 [8]) is listed as 740 nM. For the same compound, the Ki ([125I]DOI-labeled sites) was 1.43 nM, the Ki (α2-adrenoceptors) was 37 to 82 nM and the ED50 (C57BL/6J mice [9]) was 132.8 nmol/kg. For the same compound, the “potency in rats trained to discriminate saline from LSD” value [10] was 0.021 mg/kg and the Ki (β1 [11]) was 140 nM.
In the case of `CCCN(C)C(=O)[C@@H]1C=C2c3cccc4[nH]cc(c34)C[C@H]2N(C)C1` [LAMPA, N-methyl-N-propyl lysergamide], the “effect in hallucinogen-experienced subjects” value (human subjects; 100 μg p.o., six subjects, ref Abramson and Rolo 1967) is given as “no effect in four subjects and produced effects consistent with a threshold dose of LSD in two subjects”, the “HTR Counts (Mean ± SEM)” value (C57BL/6J mice [5]; 0.1 mg/kg IP, 20 min) is given as 15.8 ± 2.7 and the “HTR Counts (Mean ± SEM)” value (C57BL/6J mice [5]; 0.3 mg/kg IP, 20 min) is given as 31.0 ± 2.2. For the same compound, the “HTR Counts (Mean ± SEM)” value (C57BL/6J mice [5]; 1 mg/kg IP, 20 min) was 19.5 ± 3.2, the “HTR Counts (Mean ± SEM)” value (C57BL/6J mice [5]; 3 mg/kg IP, 20 min) was 7.4 ± 4.3 and the “ED50, nmol/kg (95% CI)” value (C57BL/6J mice [5]; [14]) was 358.3 (241.1–532.4) nmol/kg. For the same compound, the “ED50, μg/kg (95% CI)” value (C57BL/6J mice [5]; [14]) was 115.9 (78.0–172.2) μg/kg.
